Measurements from US20080152715A1, “Method for preparing nanoparticles comprising vitamin K and poly-isopropyl-butyl methacrylate-acrylic acid copolymer with supercritical fluid using molecular association theory” (Seoul National Universtiy Industry Foundation, priority 2006, published 2008).

Test: Particle size measurement using a Particle Size Analyzer
Format: physicochemical
Conditions: pretreated vitamin K, before the supercritical process
Description: The pretreated vitamin K has a particle size of 50 to 100 microns. In Examples, the particle sizes of vitamin K nanoparticles prepared by the following conditions were measured using a Particle Size Analyzer. Here, spherical fine particles having a particle size of 50 to 300 nm can be obtained according to the presence or absence of a poly-isopropyl-butyl methacrylate-acrylic acid copolymer as a biodegradable polymer, and the operating conditions.
As shown in the following Table 1, the present Examples represent the operating conditions of the reactor in the step of formation of a spherical structure. The temperature and the pressure of the reactor must be each above 304.2 K and 73.8 bar, which correspond to the critical temperature and the critical pressure of carbon dioxide, respectively. The operating parameters in the reactor are the temperature and the pressure in reactor, the amount of carbon dioxide as a supercritical fluid, and the amount of solution prepared in the preparation step. In Example 1, the solution contains vitamin K of 0.0016 wt % alone without a biodegradable polymer. In Example 2 to 8, the solution contains both of vitamin K of 0.0016 wt % and the poly-isopropyl-butyl methacrylate-acrylic acid copolymer of 0.0014 wt % as a biodegradable polymer. […] In Examples 1 and 3, the change was measured at 313K and 323K by adjusting the reactor temperature. […]

particle size: 50 to 100 microns
Substance: vitamin K [pretreated vitamin K]
